Assays:
[1] = target: T1, Recombinant human glycogen synthase kinase 3β (Homo sapiens, UniProt P49841); experiment: GSK-3β inhibition (radiometric kinase assay, GS-2 peptide, 33P-ATP); format: biochemical; conditions: 0.5 h, remaining GSK-3 activity; for remaining activity at 25 µM: compound 25 μM; for remaining activity at 50 µM: compound 50 μM
T1 construct: purchased Upstate 14-306
Method: This assay is based on the protocol detailed by Upstate Cat. 14-306, making some slight modifications.
Recombinant human glycogen synthase kinase 3β is assayed in MOPS 11 mM pH7.4, EDTA 0.2 mM, EGTA 1.25 mM, MgCl2 26.25 mM and sodium orthovanadate 0.25 mM in the presence of 62.5 μM of Phospho-Glycogen Synthase Peptide-2 (GS-2) (TOCRIS, Cat. 1352), 0.5 μCi γ-^33P-ATP and unlabelled ATP (Sigma, A-9187) at a final concentration of 12.5 μM. After incubation for 30 minutes at 30° C., aliquots are spotted onto P81 phosphocellulose papers. Filters are washed four times for at least 10 minutes each with 1% phosphoric acid and counted with scintillation cocktail in a scintillation counter (PerkinElmer, Microbeta 1450). The activity of GSK-3 is tested at concentrations of 25 and 50 μM, in the presence of the compounds synthesized according to examples 1 to 7 and in the presence of another 6 compounds of formula (I).The results obtained are indicated in Table I (see below), in the form of percentage of GSK-3 activity.

[2] = system: phosphorylated human Tau [pS396]; experiment: Inhibition of tau phosphorylation in SHSY5Y cells (Tau [pS396] sandwich ELISA); format: cell-based; parameters: key: “NEG” means no tau phosphorylation inhibition was detected at the referred concentration of compound (I); “POS” means that at the referred concentration tau phosphorylation inhibition was detected; conditions: 18 h
Method: Human neuroblastoma SHSY5Y cells were seeded in the presence of Minimum Essential Medium/Nutrient Mixture F-12. One day later, cells are treated with samples for 18 h at 37° C. After treatment, cultures are washed with phosphate-buffered saline and lysed for 30 min at 4° C. in extraction buffer (10 mM Tris-HCl, pH 7.4, 100 mM NaCl, 1 mM EDTA, 2 mM Na3VO4, 1% Triton X-100, 10% glycerol, 0.1% SDS, 0.5% Sodium deoxycholate, 1 mM PMSF and a protease inhibitor cocktail (Roche, Cat 1 697 498)).
The quantitative determination of phosphorylated human Tau is made taking aliquots of the cell lysate and using a phosphorylation-specific antibody against Tau [pS396] in a sandwich ELISA (Biosource, Cat KHB7031). Tau phosphorylation is estimated by measuring the absorbance at 450 nm in a microtiter plate reader (Cultek, Anthos 2010).
The effect of the synthesized compounds according to examples 1-7 and that of another 6 compounds of formula (I) is determined at different final concentrations, namely 50, 100 and 200 μM. Not all the compounds of formula (I) were tested at all the concentrations. The results are indicated in Table 1 (see below) as “NEG” and “POS”, respectively meaning “negative” and “positive”; “NEG” means no tau phosphorylation inhibition was detected at the referred concentration of compound (I); “POS” means that at the referred concentration tau phosphorylation inhibition was detected.

[3] = system: SH-SY5Y cells; experiment: Cell survival by LDH release in SH-SY5Y cells; format: cell-based
Method: In addition to tau phosphorylation assays, quantification of cell death due to potential toxicity of compounds 1, 4, 5, 7, 8, 9, 10 and 11 described above is made by measuring LDH release (Roche, Cat 1 644 793). For the quantitative determination of cell survival, aliquots of the cell lysate are incubated with an equal volume of reaction mixture at room temperature for 20-30 min. The measure of absorbance is made in a microtiter plate reader with 490-492 nm filter (Cultek, Anthos 2010).
For compounds 4 and 5, the cell survival was measured at 24 hours treatment (see Table 2), and for compounds 1, 7, 8, 9, 10 and 11 was measured at 18 hours treatment (see Table 3), in SH-SY5Y cells. It is generally considered that a compound is considered toxic if less than 80% of the cells survive after treatment with a compound.

T1 sequence (P49841 whole entry): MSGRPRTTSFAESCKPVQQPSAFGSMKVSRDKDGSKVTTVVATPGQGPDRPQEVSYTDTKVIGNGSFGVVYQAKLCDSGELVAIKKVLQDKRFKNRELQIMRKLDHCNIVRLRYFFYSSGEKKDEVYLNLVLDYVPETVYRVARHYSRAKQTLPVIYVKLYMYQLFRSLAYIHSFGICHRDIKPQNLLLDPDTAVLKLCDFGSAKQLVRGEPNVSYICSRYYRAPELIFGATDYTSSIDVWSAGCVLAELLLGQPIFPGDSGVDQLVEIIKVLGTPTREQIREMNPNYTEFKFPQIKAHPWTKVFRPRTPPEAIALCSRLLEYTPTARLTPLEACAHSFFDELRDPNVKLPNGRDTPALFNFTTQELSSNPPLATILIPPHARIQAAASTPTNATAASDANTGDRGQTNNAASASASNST

Row | Compound | remaining activity at 25 µM [1] | remaining activity at 50 µM [1] | Tau phosphorylation inhibition in cells ([2]; 50 μM) | Tau phosphorylation inhibition in cells ([2]; 100 μM) | Tau phosphorylation inhibition in cells ([2]; 200 μM) | % of cell viability ([3]; 50 μM, 18 hours treatment) | % of cell viability ([3]; 100 μM, 18 hours treatment) | % of cell viability ([3]; 10 μM, 24 hours treatment) | % of cell viability ([3]; 25 μM, 24 hours treatment)
1 | O=C(CCCc1c[nH]c2ccccc12)Nc1ncc([N+](=O)[O-])s1 [Compound 1] | 37.4% | 18.9% | NEG | NEG | NEG | 103.2 ± 17% | 101.0 ± 17% |  | 
2 | O=C(CCCc1c[nH]c2ccccc12)Nc1nccs1 [Compound 2] | 59.6% | 39% |  |  |  |  |  |  | 
3 | O=C(Nc1ncc([N+](=O)[O-])s1)c1c[nH]c2ccccc12 [Compound 3] | 73.8% | 53.4% |  |  |  |  |  |  | 
4 | O=C(Cc1c[nH]c2ccccc12)Nc1ncc([N+](=O)[O-])s1 [Compound 4, 2-(Indol-3-yl)-N-(5-nitro-thiazol-2-yl)-acetamide] | 6.29% | 8.51% | NEG | POS | POS |  |  | 91.7 ± 1.9% | 90 ± 3.7%
5 | O=C(CCc1c[nH]c2ccccc12)Nc1ncc([N+](=O)[O-])s1 [Compound 5] | 19.1% | 12.4% | POS | POS | POS |  |  | 87.8 ± 3.8% | 86.1 ± 18.4%
6 | O=C(Cc1c[nH]c2ccccc12)Nc1ncc(Cl)s1 [Compound 6] | 29.4% | 14.6% |  |  |  |  |  |  | 
7 | COc1ccc2[nH]cc(CC(=O)Nc3ncc([N+](=O)[O-])s3)c2c1 [Compound 7, 2-(5-Methoxy-indol-3-yl)-N-(5-nitro-thiazol-2-yl)-acetamide] | 43.9% | 32.2% | NEG | POS |  | 99.8 ± 8.6% | 92.9 ± 11.1% |  | 
8 | Cn1cc(CC(=O)Nc2ncc([N+](=O)[O-])s2)c2ccccc21 [Compound 8, 2-(1-Methyl-indol-3-yl)-N-(5-nitro-thiazol-2-yl)-acetamide] | 17.8% | 9.27% | POS | POS |  | 103 ± 7.7% | 85.5 ± 6.5% |  | 
9 | Cc1[nH]c2ccccc2c1CC(=O)Nc1ncc([N+](=O)[O-])s1 [Compound 9, 2-(2-Methyl-indol-3-yl)-N-(5-nitro-thiazol-2-yl)-acetamide] | 7.96% | 2.61% | POS | POS |  | 91.6 ± 5.9% | 90.8 ± 5.5% |  | 
10 | COc1ccc2[nH]c(C(=O)Nc3ncc([N+](=O)[O-])s3)cc2c1 [Compound 10, 5-Methoxy-indole-2-carboxylic Acid (5-nitro-thiazol-2-yl)-amide] | 18.9% | 11% | POS | POS |  | 84.7 ± 2.7% | 90.6 ± 7.2% |  | 
11 | O=C(Nc1ncc([N+](=O)[O-])s1)c1n[nH]c2ccccc12 [Compound 11, 1H-Indazole-3-carboxylic Acid (5-nitro-thiazol-2-yl)-amide] | 34.8% | 18.2% | NEG | NEG |  | 95.3 ± 3.3% | 93.9 ± 5.6% |  | 
12 | Cc1cnc(NC(=O)Cc2c[nH]c3ccccc23)s1 [Compound 12] | 49.1% | 37.1% |  |  |  |  |  |  | 
13 | O=C(Cc1c[nH]c2ccccc12)Nc1nccs1 [Compound 13] | 70.9% | 42.7% |  |  |  |  |  |  | 

— US20090192204A1, “N-(2-THIAZOLYL)-AMIDE DERIVATIVES AS GSK-3 INHIBITORS” (NOSCIRA, S.A., priority 2006, published 2009)
